This assay relates to human immortalized podocytes inducibly expressing APOL1 G2. The experiment in a line: APOL1 G2 podocyte cell rescue assay (Example B4). Particulars: Homo sapiens, differentiated human podocytes, doxycycline-induced APOL1 G2, CellTiter-Glo; geometric mean of at least 2 runs; † = single run. The assay is classed as cell-based. The method in brief: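 Differentiated hTERT-immortalized podocytes (clone D10) with doxycycline-inducible C-terminally HiBiT-tagged APOL1 G2, 6,000 cells/well, treated with doxycycline plus 8-point 3-fold compound series (0.4% DMSO) for 95 h at 37 °C. Viability by CellTiter-Glo luminescence; EC50 as geometric mean of ≥2 runs, each in duplicate.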
Compound `CC[C@]1(O)C[C@@H](N2C(=O)CCc3cc(OCCN4CCC5(CC4)C(=O)Nc4ccc(Cl)cc45)cnc32)C1` (single isomer, unassigned) [Compound 321, 5-chloro-1′-[2-({7-oxo-8-[(cis)-3-ethyl-3-hydroxycyclobutyl]-5,6,7,8-tetrahydro-1,8-naphthyridin-3-yl}oxy)ethyl]-1,2-dihydrospiro[indole-3,4′-piperidin]-2-one] yielded an EC50 of 7.65 nM.

`C[C@]1(O)C[C@@H](n2ncc3cc(OCCN4CCC5(CC4)C(=O)Nc4ccc(Cl)cc45)cnc32)C1` (single isomer, unassigned) [Compound 357, 5-chloro-1′-[2-({1-[(cis)-3-hydroxy-3-methylcyclobutyl]-1H-pyrazolo[3,4-b]pyridin-5-yl}oxy)ethyl]-1,2-dihydrospiro[indole-3,4′-piperidin]-2-one] came in with an EC50 of 4.04 nM. The figure for `CC1(O)CC(c2ncc(OCCN3CCC4(CC3)C(=O)Nc3ccc(Cl)cc34)cn2)C1` (single isomer, unassigned) [Compound 393, 5-chloro-1′-[2-({2-[(cis) or (trans)-3-hydroxy-3-methylcyclobutyl]pyrimidin-5-yl}oxy)ethyl]-1,2-dihydrospiro[indole-3,4′-piperidin]-2-one] is 23 nM; for `C[C@]1(O)C[C@H](n2ncc3cc(OCCN4CCC5(CC4)C(=O)Nc4ccc(Cl)cc45)cnc32)C1` (single isomer, unassigned) [Compound 408, 5-chloro-1′-[2-({1-[(trans)-3-hydroxy-3-methylcyclobutyl]-1H-pyrazolo[3,4-b]pyridin-5-yl}oxy)ethyl]-1,2-dihydrospiro[indole-3,4′-piperidin]-2-one] it is 7.05 nM. As for `CC(c1ncc(OCCN2CCC3(CC2)C(=O)Nc2ccc(Cl)cc23)cn1)S(C)(=O)=O` (stereo not shown) [Compound 1, 5-Chloro-1′-(2-{[2-(1-methanesulfonylethyl)pyrimidin-5-yl]oxy}ethyl)-1,2-dihydrospiro[indole-3,4′-piperidin]-2-one], the EC50 was found to be 18.8 nM.

In turn, `CS(=O)(=O)C1(c2ncc(OCCN3CCC4(CC3)C(=O)Nc3ccc(Cl)cc34)cn2)CC1` [Compound 4, 5-chloro-1′-(2-{[2-(1-methanesulfonylcyclopropyl)pyrimidin-5-yl]oxy}ethyl)-1,2-dihydrospiro[indole-3,4′-piperidin]-2-one] registered an EC50 of 9.16 nM. As to `CC(C)[C@]1(O)C[C@@H](N2C(=O)CCc3cc(OCCN4CCC5(CC4)C(=O)Nc4ccc(Cl)cc45)cnc32)C1` [Compound 317, 5-chloro-1′-[2-({7-oxo-8-[(cis)-3-hydroxy-3-(propan-2-yl)cyclobutyl]-5,6,7,8-tetrahydro-1,8-naphthyridin-3-yl}oxy)ethyl]-1,2-dihydrospiro[indole-3,4′-piperidin]-2-one], the EC50 was determined as 2.92 nM. Regarding `C[C@]1(O)C[C@@H](n2c(=O)ccc3cc(OCCN4CCC5(CC4)C(=O)Nc4ccc(Cl)cc45)cnc32)C1` [Compound 323, 5-chloro-1′-[2-({7-oxo-8-[(cis)-3-hydroxy-3-methylcyclobutyl]-7,8-dihydro-1,8-naphthyridin-3-yl}oxy)ethyl]-1,2-dihydrospiro[indole-3,4′-piperidin]-2-one], the EC50 is 2.02 nM. Consider `CC(C)(CO)c1ncc(OCCN2CCC3(CC2)C(=O)Nc2ccc(Cl)cc23)cn1` [Compound 334, 5-chloro-1′-(2-{[2-(1-hydroxy-2-methylpropan-2-yl)pyrimidin-5-yl]oxy}ethyl)-1,2-dihydrospiro[indole-3,4′-piperidin]-2-one], for which the EC50 was determined as 9.58 nM. In turn, `C[C@]1(O)C[C@@H](N2C(=O)Cc3cc(OCCN4CCC5(CC4)C(=O)Nc4ccc(Cl)cc45)cnc32)C1` [Compound 345, 5-chloro-1′-[2-({2-oxo-1-[(cis)-3-hydroxy-3-methylcyclobutyl]-1H,2H,3H-pyrrolo[2,3-b]pyridin-5-yl}oxy)ethyl]-1,2-dihydrospiro[indole-3,4′-piperidin]-2-one] came in with an EC50 of 15.8 nM.

`C[C@]1(O)C[C@@H](N2C(=O)Cc3cc(OCCN4CCC5(CC4)C(=O)Nc4ccc(C(F)F)cc45)cnc32)C1` [Compound 346, 5-(difluoromethyl)-1′-[2-({2-oxo-1-[(cis)-3-hydroxy-3-methylcyclobutyl]-1H,2H,3H-pyrrolo[2,3-b]pyridin-5-yl]oxy)ethyl]-1,2-dihydrospiro[indole-3,4′-piperidin]-2-one]: the EC50 came to 38.8 nM. On to `C[C@]1(O)C[C@@H](n2ccc3cc(OCCN4CCC5(CC4)C(=O)Nc4ccc(Cl)cc45)cnc32)C1` [Compound 349, 5-chloro-1′-[2-({1-[(cis)-3-hydroxy-3-methylcyclobutyl]-1H-pyrrolo[2,3-b]pyridin-5-yl}oxy)ethyl]-1,2-dihydrospiro[indole-3,4′-piperidin]-2-one], for which the concentration giving a half-maximal response (EC50) turned out to be 6.81 nM. For `C[C@]1(O)C[C@@H](n2ccc3cc(OCCN4CCC5(CC4)C(=O)Nc4ccc(C(F)F)cc45)cnc32)C1` [Compound 350, 5-(difluoromethyl)-1′-[2-({1-[(cis)-3-hydroxy-3-methylcyclobutyl]-1H-pyrrolo[2,3-b]pyridin-5-yl}oxy)ethyl]-1,2-dihydrospiro[indole-3,4′-piperidin]-2-one], the EC50 came to 10.3 nM. The figure for `C[C@]1(O)C[C@@H](n2cnc3cc(OCCN4CCC5(CC4)C(=O)Nc4ccc(Cl)cc45)cc(C(F)(F)F)c32)C1` [Compound 352, 5-chloro-1′-[2-({1-[(cis)-3-hydroxy-3-methylcyclobutyl]-7-(trifluoromethyl)-1H-1,3-benzodiazol-5-yl}oxy)ethyl]-1,2-dihydrospiro[indole-3,4′-piperidin]-2-one] is 1.12 nM. Take `C[C@]1(O)C[C@@H](N2C(=O)NCc3cc(OCCN4CCC5(CC4)C(=O)Nc4ccc(Cl)cc45)cnc32)C1` [Compound 356, 5-chloro-1′-[2-({2-oxo-1-[(cis)-3-hydroxy-3-methylcyclobutyl]-1H,2H,3H,4H-pyrido[2,3-d]pyrimidin-6-yl}oxy)ethyl]-1,2-dihydrospiro[indole-3,4′-piperidin]-2-one]: it took 21.5 nM to reach a half-maximal effect (EC50).

Compound `CC(C)(O)c1ncc(OCCN2CCC3(CC2)C(=O)Nc2ccc(Cl)cc23)cc1C(F)(F)F` [Compound 371, 5-chloro-1′-(2-{[6-(2-hydroxypropan-2-yl)-5-(trifluoromethyl)pyridin-3-yl]oxy}ethyl)-1,2-dihydrospiro[indole-3,4′-piperidin]-2-one] gave an EC50 of 1.1 nM. On to `C[C@]1(O)C[C@@H](n2c(=O)oc3cc(OCCN4CCC5(CC4)C(=O)Nc4ccc(Cl)cc45)cnc32)C1` [Compound 394, 5-chloro-1′-[2-({2-oxo-3-[(cis)-3-hydroxy-3-methylcyclobutyl]-2H,3H-[1,3]oxazolo[4,5-b]pyridin-6-yl}oxy)ethyl]-1,2-dihydrospiro[indole-3,4′-piperidin]-2-one], for which it took 16.9 nM to reach a half-maximal effect (EC50). Turning to `O=C1Nc2ccc(Cl)cc2C12CCN(CCOc1cnc(N3CC4(CC(O)C4)C3)nc1)CC2` [Compound 396, 5-chloro-1′-{2-[(2-{6-hydroxy-2-azaspiro[3.3]heptan-2-yl}pyrimidin-5-yl)oxy]ethyl}-1,2-dihydrospiro[indole-3,4′-piperidin]-2-one], the EC50 came to 18.6 nM. Regarding `CCC1(O)CN(c2ncc(OCCN3CCC4(CC3)C(=O)Nc3ccc(Cl)cc34)cn2)C1` [Compound 397, 5-chloro-1′-(2-{[2-(3-ethyl-3-hydroxyazetidin-1-yl)pyrinlidin-5-yl]oxy}ethyl)-1,2-dihydrospiro[indole-3,4′-piperidin]-2-one], the EC50 is 14.3 nM.

For the origin of these results see patent US12344610B2, “APOL1 inhibitors and methods of use” (Maze Therapeutics, Inc., priority 2022, dated 2025).
